Test results taken from patent US20240360194A1, “New Peptides as Potent and Selective GIP Receptor Agonists” (Sanofi, priority 2021, published 2024).
≈ marks a conversion by molar mass, not a printed value. Numbered stars: 1 amine (or outer) side, 2 acyl side, 3 side chain; on linkers, the order of the positions; unused ones are H or OH. Square brackets hold non-standard residues; d marks the D form. Side chains are listed from the residue outwards. Peptide text beside a SMILES is read from it. * marks the point of attachment. C18 diacid = O=C(O)CCCCCCCCCCCCCCCCC(=O)*; γGlu = O=C(O)[C@H](CCC(=O)[*:2])N[*:1]; αMeF = C[C@](N)(Cc1ccccc1)C(=O)O; Abu = CC[C@H](N)C(=O)O; AEEA = NCCOCCOCC(=O)O; Aib = CC(C)(N)C(=O)O

Key:
human GIP receptor = biological target: T1, human GIP receptor (Homo sapiens, UniProt P48546); assay: In vitro cellular cAMP assay for GIP receptor efficacy (human adipocytes); type: cell-based; settings: for EC50: read-out: hGIPR EC50; for Emax: read-out: hGIPR Emax
T1 construct: human adipocytes endogenously expressing the human GIP receptor; host or cells: human preadipocytes (Lonza) differentiated to adipocytes
T1 sequence (P48546 22-466): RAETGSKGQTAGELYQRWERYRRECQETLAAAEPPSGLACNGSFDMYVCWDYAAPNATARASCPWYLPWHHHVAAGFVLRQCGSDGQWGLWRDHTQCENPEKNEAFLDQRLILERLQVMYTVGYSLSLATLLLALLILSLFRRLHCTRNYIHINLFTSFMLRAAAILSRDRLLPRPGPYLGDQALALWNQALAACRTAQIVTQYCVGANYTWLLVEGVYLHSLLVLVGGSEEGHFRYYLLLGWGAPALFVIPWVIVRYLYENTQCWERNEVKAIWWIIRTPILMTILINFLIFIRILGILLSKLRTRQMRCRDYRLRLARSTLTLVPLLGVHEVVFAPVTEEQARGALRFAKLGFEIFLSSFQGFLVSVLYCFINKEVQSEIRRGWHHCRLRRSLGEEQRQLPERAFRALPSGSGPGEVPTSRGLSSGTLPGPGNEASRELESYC
Experimental: For this, one vial of human preadipocytes (˜10^6 cells; Lonza) was thawed in a T-75 cell culture dish. The cells were cultivated at 37° C., 5% CO2, 95% humidity in Preadipocyte Growth Medium with Supplement Mix from Promo Cell.
After 3 days, the cells were washed with PBS and 1.5 ml Trypsin, incubated for 4 min, then resuspended in medium, centrifugated for 10 min @ 300 rcf RT, resuspended again and distributed to four T-75 cell culture dishes. Again, the cells were cultivated at 37° C., 5% CO2, 95% humidity.
After 5 days, the cells were washed with PBS and 1.5 ml Trypsin, incubated for 4 min, then resuspended in medium, centrifugated for 10 min @ 300 rcf RT, resuspended again and sawn in T-75 dishes (2.5×10^6 cells per dish) in 15 ml Differentiation medium each.
The differentiation medium had the following composition: DMEM (Gibco), Ham's F10 (Gibco), 15 mM HEPES (Gibco), 3% FCS (PAA), 33 μM biotin (Sigma-Aldrich), 17 μM Pantothenate (Sigma-Aldrich), 0.1 μM human insulin (Sigma-Aldrich), 1 μM dexamethason (Sigma-Aldrich), 0.1 μM PPARgamma agonist (#R2408, Sigma-Aldrich), 0.6×Anti-Anti (#15240, ThermoFisher), 200 μM IBMX (AppliChem), and 0.01 μM L-thyroxine (Sigma-Aldrich).
After 6 days of differentiation, 5000 cells per well were dispensed on a 96-well plate (#CLS3694 from Corning®, Sigma-Aldrich). For measurement of cAMP generation, 25 μL of test compound was added to each well of the 96-well plate, followed by incubation for 30 min at room temperature.
The cAMP generated following test compound stimulation was determined using a kit from Cisbio Corp. based on HTRF (Homogenous Time Resolved Fluorescence). The cAMP assay was performed according to manufacturer's instructions (Cisbio).
The cAMP content of cells was determined using a kit from Cisbio Corp. based on HTRF (Homogenous Time Resolved Fluorescence).
After addition of HTRF reagents diluted in lysis buffer (kit components), the plates were incubated for 1 h, followed by measurement of the fluorescence ratio at 665/620 nm.

[1] = biological target: human GLP-1 receptor (hGLP-1R) (Homo sapiens, UniProt P43220); assay: In vitro cellular cAMP assay for GLP-1 receptor efficacy (HEK-293 cell line over-expressing receptor); type: cell-based; settings: HEK-293, 0.1% BSA
Chain of human GLP-1 receptor (hGLP-1R) (P43220 24-463): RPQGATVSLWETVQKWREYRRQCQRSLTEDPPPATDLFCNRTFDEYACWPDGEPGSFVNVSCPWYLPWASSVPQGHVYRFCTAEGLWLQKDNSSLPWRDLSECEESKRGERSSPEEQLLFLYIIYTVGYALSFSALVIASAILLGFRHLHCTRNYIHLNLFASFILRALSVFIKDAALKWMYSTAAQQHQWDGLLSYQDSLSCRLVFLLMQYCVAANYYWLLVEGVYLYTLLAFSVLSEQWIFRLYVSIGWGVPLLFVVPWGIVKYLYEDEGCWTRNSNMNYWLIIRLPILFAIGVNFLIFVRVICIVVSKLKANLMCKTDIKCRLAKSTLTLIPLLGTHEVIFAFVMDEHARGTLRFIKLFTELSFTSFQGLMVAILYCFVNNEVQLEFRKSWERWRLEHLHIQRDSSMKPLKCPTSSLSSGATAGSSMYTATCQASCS

[2] = biological target: T2, human GIP receptor (hGIPR) (Homo sapiens, UniProt P48546); assay: Binding assay, displacement of [125I]GIP from HEK-293 membranes over-expressing GIPR (SPA); settings: [125I]GIP displacement
T2 sequence (P48546 22-466): T1 sequence (P48546 22-466)
Experimental: (1) Preparation of Membranes from HEK-293 Cells Over-Expressing GIPR or GLP-1R
HEK-293 cells recombinantly over-expressing GIPR or GLP-1R were grown to 50% confluency, washed with warm 1×PBS (Gibco) and detached in HEPES/EDTA-buffer (100 mM HEPES pH 7.5, 5 mM EDTA). Cells were harvested by centrifugation at 4° C. and 3000×g and the pellets were stored at −80° C. until further processing.
After thawing on ice, pellets were resuspended in HEPES/EDTA-buffer and homogenized on ice for 1 min using Ultra-Turray T25. After subsequent sonification the cell debris was removed by centrifugation at 1000×g and 4° C. Supernatants were then ultra-centrifuged at 100000×g and 4° C. under vacuum for 30 min. Pellets were resuspended in HEPES/EDTA/NaCl-buffer (20 mM HEPES, 1 mM EDTA, 150 mM NaCl; add 1 Complete Mini Protease inhibitor cocktail to 10 ml buffer) and protein content was determined via BCA-Protein assay.
(2) Measurement of Binding Activity of Test Compounds to Human GIPR or GLP-1R

[3] = Solubility assessment (UHPLC-UV of supernatant, target 10 mg/ml); type: physicochemical; settings: for solubility at 24 h: pH 7.4, Soluble amount; for Soluble amount: 24 h, pH 7.4
Experimental: Prior to the solubility measurement of a peptide batch, its purity was determined through UHPLC/MS.
Therefore, solutions from solid samples were prepared in a buffer system with a concentration of 10 mg/ml compound based on the previously determined % purity: • Solubility buffer system A) 100 mM phosphate buffer pH 7.4 • Solubility buffer system B) 8 mM phosphate buffer pH 7.4, 14 mg/ml propylene glycol, 5.5 mg/ml phenol • Solubility buffer system C) 100 mM phosphate buffer pH 7.4, 2.7 mg/ml m-cresol
UHPLC-UV was performed after 1 h of gentle agitation and storage at 5° C. overnight (24 h) from the supernatant, which was obtained after 15 min of centrifugation at 2500 RCF (relative centrifugal acceleration).
The different UV extinction coefficients of sample and reference peptide were calculated based on the different amino acid sequences and considered in the concentration calculation.
The analytical method used was Analytical UHPLC Method A.
Peptide samples were prepared in solubility buffer system A or C and solubility was assessed as described in Methods.

SMILES	EC50 (human GIP receptor) [nM]	Emax (human GIP receptor) [%]	EC50 [1] [nM]	IC50 [2] [nM]	solubility at 24 h [3] [µg/mL]	Soluble amount [3] [mg/mL]
CC[C@H](C)[C@H](NC(=O)[C@H](CCCNC(=N)N)NC(=O)[C@H](CC(=O)O)NC(=O)[C@H](CCCCNC(=O)COCCOCCNC(=O)COCCOCCNC(=O)CC[C@H](NC(=O)CCCCCCCCCCCCCCCCC(=O)O)C(=O)O)NC(=O)C(C)(C)NC(=O)[C@@H](NC(=O)[C@H](CO)NC(=O)[C@H](CC(C)C)NC(=O)[C@H](CC(=O)O)NC(=O)[C@H](CO)NC(=O)[C@@H](NC(=O)[C@H](Cc1ccccc1)NC(=O)[C@@H](NC(=O)CNC(=O)[C@H](CCC(=O)O)NC(=O)C(C)(C)NC(=O)[C@@H](N)Cc1ccc(O)cc1)[C@@H](C)O)[C@@H](C)CC)[C@@H](C)CC)C(=O)N[C@@H](Cc1c[nH]cn1)C(=O)N[C@@H](CCC(N)=O)C(=O)N[C@@H](CCC(=O)O)C(=O)N[C@@H](CCC(=O)O)C(=O)N[C@@](C)(Cc1ccccc1)C(=O)N[C@H](C(=O)N[C@@H](CCC(=O)O)C(=O)N[C@@H](Cc1c[nH]c2ccccc12)C(=O)N[C@@H](CC(C)C)C(=O)N[C@@H](CC(C)C)C(=O)N[C@@H](C)C(=O)N[C@@H](CCC(N)=O)C(=O)NCC(=O)N1CCC[C@H]1C(=O)N[C@@H](CO)C(=O)N[C@@H](CO)C(=O)NCC(=O)N[C@@H](C)C(=O)N1CCC[C@H]1C(=O)N1CCC[C@H]1C(=O)N1CCC[C@H]1C(=O)N[C@@H](CO)C(N)=O)[C@@H](C)CC [SEQ ID NO: 32, H2N-Y-Aib-E-G-T-F-I-S-D-L-S-I-Aib-K[{AEEA}2-gGlu-C18OH]-D-R-I-H-Q-E-E-Mph-I-E-W-L-L-A-Q-G-P-S-S-G-A-P-P-P-S-NH2] (H-Y[Aib]EGTFISDLSI[Aib]K([AEEA-AEEA-γGlu-C18 diacid])DRIHQEE[αMeF]IEWLLAQGPSSGAPPPS-NH2)	0.6	109	> 10	0.9	8200 (≈ 1630 µM)	
CC[C@H](NC(=O)[C@@H](NC(=O)CNC(=O)[C@H](CCC(=O)O)NC(=O)C(C)(C)NC(=O)[C@@H](N)Cc1ccc(O)cc1)[C@@H](C)O)C(=O)N[C@H](C(=O)N[C@@H](CO)C(=O)N[C@@H](CC(=O)O)C(=O)N[C@@H](CC(C)C)C(=O)N[C@@H](CO)C(=O)N[C@H](C(=O)NC(C)(C)C(=O)N[C@@H](CCCCNC(=O)COCCOCCNC(=O)COCCOCCNC(=O)CC[C@H](NC(=O)CCCCCCCCCCCCCCCCC(=O)O)C(=O)O)C(=O)N[C@@H](CC(=O)O)C(=O)N[C@@H](CCCNC(=N)N)C(=O)N[C@H](C(=O)N[C@@H](Cc1c[nH]cn1)C(=O)N[C@@H](CCC(N)=O)C(=O)N[C@@H](CCC(=O)O)C(=O)N[C@@H](CCC(=O)O)C(=O)N[C@@H](Cc1ccccc1)C(=O)N[C@H](C(=O)N[C@@H](CCC(=O)O)C(=O)N[C@@H](Cc1c[nH]c2ccccc12)C(=O)N[C@@H](CC(C)C)C(=O)N[C@@H](CC(C)C)C(=O)N[C@@H](C)C(=O)N[C@@H](CCC(N)=O)C(=O)NCC(=O)N1CCC[C@H]1C(=O)N[C@@H](CO)C(=O)N[C@@H](CO)C(=O)NCC(=O)N[C@@H](C)C(=O)N1CCC[C@H]1C(=O)N1CCC[C@H]1C(=O)N1CCC[C@H]1C(=O)N[C@@H](CO)C(N)=O)[C@@H](C)CC)[C@@H](C)CC)[C@@H](C)CC)[C@@H](C)CC [SEQ ID NO: 25, H2N-Y-Aib-E-G-T-Abu-I-S-D-L-S-I-Aib-K[{AEEA}2-gGlu-C18OH]-DRIHQEEFIEWLLAQGPSSGAPPPS-NH2] (H-Y[Aib]EGT[Abu]ISDLSI[Aib]K([AEEA-AEEA-γGlu-C18 diacid])DRIHQEEFIEWLLAQGPSSGAPPPS-NH2)	0.2	112	> 10	0.1	> 8800	>9.2
CC[C@H](C)[C@H](NC(=O)[C@H](Cc1ccccc1)NC(=O)[C@H](CCC(=O)O)NC(=O)[C@H](CCC(=O)O)NC(=O)[C@H](CCC(N)=O)NC(=O)[C@H](Cc1c[nH]cn1)NC(=O)[C@@H](NC(=O)[C@H](CCCNC(=N)N)NC(=O)[C@H](CC(=O)O)NC(=O)[C@H](CCCCNC(=O)COCCOCCNC(=O)COCCOCCNC(=O)CC[C@H](NC(=O)CCCCCCCCCCCCCCCCC(=O)O)C(=O)O)NC(=O)C(C)(C)NC(=O)[C@@H](NC(=O)[C@H](CO)NC(=O)[C@H](CC(C)C)NC(=O)[C@H](CC(=O)O)NC(=O)[C@H](CO)NC(=O)[C@@H](NC(=O)[C@H](Cc1ccccc1)NC(=O)[C@@H](NC(=O)CNC(=O)[C@H](CCC(=O)O)NC(=O)C(C)(C)NC(=O)[C@@H](N)Cc1ccc(O)cc1)[C@@H](C)O)[C@@H](C)CC)[C@@H](C)CC)[C@@H](C)CC)C(=O)N[C@@H](CCC(=O)O)C(=O)N[C@@H](Cc1c[nH]c2ccccc12)C(=O)N[C@@H](CC(C)C)C(=O)N[C@@H](CC(C)C)C(=O)N[C@@H](C)C(=O)N[C@@H](CCC(N)=O)C(=O)N[C@@H](CCC(=O)O)C(=O)N1CCC[C@H]1C(=O)N[C@@H](CO)C(=O)N[C@@H](CO)C(=O)NCC(=O)N[C@@H](C)C(=O)N1CCC[C@H]1C(=O)N1CCC[C@H]1C(=O)N1CCC[C@H]1C(=O)N[C@@H](CO)C(N)=O [SEQ ID NO: 27, H2N-Y-Aib-E-G-T-F-I-S-D-L-S-I-Aib-K[{AEEA}2-gGlu-C18OH]-DRIHQEEFIEWLLAQEPSSGAPPPS-NH2] (H-Y[Aib]EGTFISDLSI[Aib]K([AEEA-AEEA-γGlu-C18 diacid])DRIHQEEFIEWLLAQEPSSGAPPPS-NH2)	0.6	116	> 10	0.7	> 9000	>8.4
